# Laboratory results: BindingDB's records for patent US20250353858 (BEONE MEDICINES I GMBH, 2025)
# Key:
# [1] = target: Diacylglycerol kinase alpha (Homo sapiens, UniProt P23743); experiment: Biochemical DGK IC50 Assay
# Experimental: (§1) Enzymatic reactions of DGKζ, DGKα and DGKδ were performed using ADP-Glo assay with lipid micelle substrate. […] Full length DGKα (D21-10BG, SignalChem) and full length DGKδ (D23-10G, SignalChem) were purchased. […] The resulted product was resuspended in buffer containing 25 mM HEPES pH 7.0, 0.5 mM EDTA and 160 mM Octyl β-D glucopyranoside by vigorous mixing and ultrasonic (IID, Scientz).Final concentration in reaction Enzyme Enzyme (nM) ATP (μM) DAG (μM)DGKα 7.5 140 80DGKδ 10 140 80DGKζ 0.5 140 80The inhibition activities testing for the compound disclosed herein were carried out at room temperature in assay buffer containing 50 mM HEPES, 10 mM MgCl2, 0.01% BSA, 0.1 mM Na3VO4, 0.005% Tween-20 and 0.01 mM CaCl2. […] 3 μL 2× enzyme solution was added to wells. […] After 1 hour reaction, 5 μL ADP-Glo reagent (Promga V9101) was added and incubated for 40 minutes. 10 μL Kinase Detection reagent was added and incubated for 30 minutes. Luminescence was measured on a microplate reader (PHERAstar FSX, BMG labtech). The IC50s are calculated based on inhibition of enzyme activity in the presence of increasing concentrations of compounds.
# [2] = target: Diacylglycerol kinase zeta (Homo sapiens, UniProt Q13574); experiment: Biochemical DGK IC50 Assay
# Experimental: as §1
# Diacylglycerol kinase alpha, sequence (P23743 whole entry): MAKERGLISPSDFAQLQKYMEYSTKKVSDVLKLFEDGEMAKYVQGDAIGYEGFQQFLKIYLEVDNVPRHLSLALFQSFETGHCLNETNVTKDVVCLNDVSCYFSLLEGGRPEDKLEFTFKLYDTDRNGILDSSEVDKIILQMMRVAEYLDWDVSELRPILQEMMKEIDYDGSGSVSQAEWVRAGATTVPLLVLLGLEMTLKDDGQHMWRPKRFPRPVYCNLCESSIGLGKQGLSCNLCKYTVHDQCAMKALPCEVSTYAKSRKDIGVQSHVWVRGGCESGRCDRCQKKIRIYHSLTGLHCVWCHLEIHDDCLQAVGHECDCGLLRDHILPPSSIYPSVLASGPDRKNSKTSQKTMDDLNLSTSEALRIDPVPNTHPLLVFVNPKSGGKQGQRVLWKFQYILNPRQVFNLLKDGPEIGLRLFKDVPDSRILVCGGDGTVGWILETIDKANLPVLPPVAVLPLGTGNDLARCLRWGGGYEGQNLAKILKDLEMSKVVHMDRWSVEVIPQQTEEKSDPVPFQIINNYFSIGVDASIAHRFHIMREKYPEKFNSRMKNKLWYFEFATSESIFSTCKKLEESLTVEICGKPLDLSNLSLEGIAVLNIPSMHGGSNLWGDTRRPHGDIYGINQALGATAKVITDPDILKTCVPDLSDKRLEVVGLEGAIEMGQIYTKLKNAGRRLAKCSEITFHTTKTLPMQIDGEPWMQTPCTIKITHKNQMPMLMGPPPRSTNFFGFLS
# Diacylglycerol kinase zeta, sequence (Q13574 as listed by the source): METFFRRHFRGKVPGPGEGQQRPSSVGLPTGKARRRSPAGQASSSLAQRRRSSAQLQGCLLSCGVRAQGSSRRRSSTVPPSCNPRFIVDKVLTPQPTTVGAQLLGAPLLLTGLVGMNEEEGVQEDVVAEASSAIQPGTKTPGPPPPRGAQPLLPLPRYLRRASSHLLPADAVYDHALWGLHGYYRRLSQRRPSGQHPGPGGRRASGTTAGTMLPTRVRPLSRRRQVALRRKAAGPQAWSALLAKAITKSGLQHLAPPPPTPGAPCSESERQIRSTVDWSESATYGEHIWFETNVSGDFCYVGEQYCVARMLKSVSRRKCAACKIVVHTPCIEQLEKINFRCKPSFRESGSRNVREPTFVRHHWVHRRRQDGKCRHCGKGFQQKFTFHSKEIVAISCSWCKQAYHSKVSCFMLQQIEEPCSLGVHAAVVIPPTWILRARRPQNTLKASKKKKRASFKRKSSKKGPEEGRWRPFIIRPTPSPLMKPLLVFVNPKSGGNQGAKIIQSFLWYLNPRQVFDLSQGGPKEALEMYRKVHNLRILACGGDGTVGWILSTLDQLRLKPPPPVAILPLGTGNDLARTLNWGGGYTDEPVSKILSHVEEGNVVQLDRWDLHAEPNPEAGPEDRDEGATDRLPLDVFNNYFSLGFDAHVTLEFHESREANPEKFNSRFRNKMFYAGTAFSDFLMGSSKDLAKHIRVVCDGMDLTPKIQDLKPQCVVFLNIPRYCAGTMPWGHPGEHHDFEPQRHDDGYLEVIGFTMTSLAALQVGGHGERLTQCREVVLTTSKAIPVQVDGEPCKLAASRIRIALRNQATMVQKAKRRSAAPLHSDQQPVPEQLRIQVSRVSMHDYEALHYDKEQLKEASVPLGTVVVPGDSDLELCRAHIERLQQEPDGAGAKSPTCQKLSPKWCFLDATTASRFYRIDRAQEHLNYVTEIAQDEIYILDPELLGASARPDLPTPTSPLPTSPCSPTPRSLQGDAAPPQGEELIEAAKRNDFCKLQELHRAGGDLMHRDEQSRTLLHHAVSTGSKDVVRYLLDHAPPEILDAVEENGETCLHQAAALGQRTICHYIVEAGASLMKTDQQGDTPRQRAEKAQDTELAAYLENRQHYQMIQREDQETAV
IC50 [1],IC50 [2],SMILES
> 10 µM,–,"C[C@@H]1CC(c2cc(=O)n(C)c3cc(CC#N)nn23)CCN1[C@H](C)c1ccc2nccnc2c1 (stereo partly drawn) [US20250353858, Compound A33b]"
61.5 µM,75 nM,"CC(c1ccc2c(n1)OC(C)(C)CO2)N1C[C@H](C)N(c2cc(=O)n(C)c3cn(CC#N)nc23)C[C@H]1C (stereo partly drawn) [2-(7-((2S,5R)-4-(1-(3,3-dimethyl-2,3-dihydro-[1,4]dioxino[2,3-b]pyridin-6-yl)ethyl)-2,5-dimethylpiperazin-1-yl)-4-methyl-5-oxo-4,5-dihydro-2H-pyrazolo[4,3-b]pyridin-2-yl)acetonitrile]"
